According to patent US20240336620A1, “PROTEIN D[…] AND METHODS OF USE” (AnHorn Medicines Co., Ltd., priority 2022, published 2024):

molecular target: T1, androgen receptor (Homo sapiens, UniProt P10275, T878A); assay: Androgen receptor degradation assay using Western blot analysis; format: cell-based; conditions: LNCaP·FGC cells, concentration needed for 50% AR degradation, serial dilutions
T1 construct: host or cells: LNCaP·FGC cells
T1 sequence (P10275 1-920 T878A): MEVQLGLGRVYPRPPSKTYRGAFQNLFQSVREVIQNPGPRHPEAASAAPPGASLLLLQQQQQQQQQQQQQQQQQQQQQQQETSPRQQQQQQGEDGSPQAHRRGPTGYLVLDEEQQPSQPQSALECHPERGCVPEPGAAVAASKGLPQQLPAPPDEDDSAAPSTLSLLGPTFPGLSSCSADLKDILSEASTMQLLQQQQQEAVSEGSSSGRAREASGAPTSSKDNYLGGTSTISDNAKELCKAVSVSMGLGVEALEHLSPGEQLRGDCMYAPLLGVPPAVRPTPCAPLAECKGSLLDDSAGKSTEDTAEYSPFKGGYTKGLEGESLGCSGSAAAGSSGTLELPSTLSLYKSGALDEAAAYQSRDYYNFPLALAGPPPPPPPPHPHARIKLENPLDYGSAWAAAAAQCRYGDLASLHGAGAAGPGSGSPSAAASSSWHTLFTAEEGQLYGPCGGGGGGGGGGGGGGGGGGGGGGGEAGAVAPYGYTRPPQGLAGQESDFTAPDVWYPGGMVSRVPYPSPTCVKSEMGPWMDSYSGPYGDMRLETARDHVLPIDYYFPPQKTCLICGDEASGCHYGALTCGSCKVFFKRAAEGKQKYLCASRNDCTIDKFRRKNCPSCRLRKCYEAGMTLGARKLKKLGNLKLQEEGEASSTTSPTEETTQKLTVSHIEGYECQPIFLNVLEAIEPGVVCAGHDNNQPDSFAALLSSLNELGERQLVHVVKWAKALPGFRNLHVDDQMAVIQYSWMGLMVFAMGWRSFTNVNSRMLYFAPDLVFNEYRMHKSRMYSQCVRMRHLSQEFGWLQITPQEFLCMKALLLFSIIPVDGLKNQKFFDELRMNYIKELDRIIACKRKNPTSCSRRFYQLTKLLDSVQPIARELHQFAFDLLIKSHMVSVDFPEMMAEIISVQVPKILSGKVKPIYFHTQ
Description: LNCaP·FGC cells (Cat. 60088, Bioresource Collection and Research Center, 15 HsinChu City, Taiwan R.O.C.) grown in RPMI 1640 (Cat. 31800022, Thermo Fisher Scientific, Waltham, Massachusetts, United States) medium supplemented with 10% FBS (Cat. 10437028, Thermo Fisher Scientific, Waltham, Massachusetts, United States), 10 mM HEPES (Cat. 15630080, Thermo Fisher Scientific, Waltham, Massachusetts, United States) and 1 mM sodium pyruvate (Cat. 11360070, Thermo 20 Fisher Scientific, Waltham, Massachusetts, United States) were seeded at 2×10^5 cells per well in 24-well tissue culture plates. […] After the treatment, the cells were harvested, washed by PBS, and lysed with RIPA lysis and extraction buffer (Cat. 25 89900, Thermo Fisher Scientific, Waltham, Massachusetts, United States) supplemented with Halt Protease Inhibitor Cocktail (Cat. 78430, Thermo Fisher Scientific, Waltham, Massachusetts, United States) to collect protein samples. Cells not treated with any of the above-mentioned compounds are used as a negative control.
The protein samples were separated by polyacrylamide gel electrophoresis, and then transferred to a piece of Immuno-Blot PVDF membrane (Cat. 1620177, Bio-Rad Laboratories, Hercules, California, United States). The presence of androgen receptor in the protein samples was detected by standard Western blotting procedure using an anti-AR antibody (1:2000 dilution) (Cat. 5153, Cell Signaling Technology Inc., Danvers, Massachusetts, United States) and a goat anti-rabbit HRP-conjugated secondary antibody (1:5000 dilution) (C04003, Croyez Bioscience Co., Ltd., Taipei City, Taiwan R.O.C.). The internal loading control GAPDH was detected using a mouse monoclonal antibody (1:5000) (GTX627408, GeneTex International Corp., HsinChu City, Taiwan R.O.C.) and a goat anti-mouse HRP-conjugated secondary antibody (1:5000 dilution) (C04001, Croyez Bioscience Co., Ltd., Taipei City, Taiwan R.O.C.). Chemiluminescence signals were developed using Clarity Western ECL substrate (Cat. 1705061, Bio-Rad Laboratories, Hercules, California, United States) and detected with digital imager iBright FL1500 (Invitrogen Corp., Carlsbad, California, United States).
Compounds 1-16 were selected and serial diluted (1Ox) with RPMI medium for treating LNCaP·FGC cells. A calibration curve was determined by the serial diluted samples for each compound, and the concentration needed for 50% AR degradation (AR DC50) for each compound was calculated. “Cpd. ID” indicates the compound ID number in Table 1.

SMILES | DC50 [nM]
Cn1c2c(c3ccc(N4CCN(CC5CN(c6ccc(-c7ccc8c(c7)C(C)(C)C(=O)N8c7ccc(C#N)c(Cl)c7)c(F)n6)C5)CC4)cc31)C(=O)N(C1CCC(=O)NC1=O)C2=O (stereo not shown) [Compound 1] | 200 to 1000
Cn1c2c(c3ccc(OC4CCN(CC5CN(c6ccc(-c7ccc8c(c7)C(C)(C)C(=O)N8c7ccc(C#N)c(Cl)c7)c(F)n6)C5)CC4)cc31)C(=O)N(C1CCC(=O)NC1=O)C2=O (stereo not shown) [Compound 2] | ≥ 1000
CCn1c2c(c3ccc(C4CCN(CC5CN(c6ccc(-c7ccc8c(c7)C(C)(C)C(=O)N8c7ccc(C#N)c(Cl)c7)c(F)n6)C5)CC4)cc31)C(=O)N(C1CCC(=O)NC1=O)C2=O (stereo not shown) [Compound 3] | 200 to 1000
CCn1c2c(c3ccc(OCCCN4CCN(c5ccc(-c6ccc7c(c6)C(C)(C)C(=O)N7c6ccc(C#N)c(Cl)c6)c(F)n5)CC4)cc31)C(=O)N(C1CCC(=O)NC1=O)C2=O (stereo not shown) [Compound 4] | 200 to 1000
Cn1c2c(c3ccc(N4CCN(CC5CCN(c6ccc(-c7ccc8c(c7)C(C)(C)C(=O)N8c7ccc(C#N)c(Cl)c7)c(F)n6)CC5)CC4)cc31)C(=O)N(C1CCC(=O)NC1=O)C2=O (stereo not shown) [Compound 5] | ≥ 1000
Cn1c2c(c3ccc(C4CCN(CC5CCN(c6ccc(-c7ccc8c(c7)C(C)(C)C(=O)N8c7ccc(C#N)c(Cl)c7)c(F)n6)CC5)CC4)cc31)C(=O)N(C1CCC(=O)NC1=O)C2=O (stereo not shown) [Compound 8] | 200 to 1000
CCn1c2c(c3ccc(N4CCN(CC5CCN(c6ccc(-c7ccc8c(c7)C(C)(C)C(=O)N8c7ccc(C#N)c(Cl)c7)c(F)n6)CC5)CC4)cc31)C(=O)N(C1CCC(=O)NC1=O)C2=O (stereo not shown) [Compound 9] | 200 to 1000
Cn1c2c(c3ccc(N4CCN(CC5CCN(c6ccc(-c7ccc8c(c7)C(C)(C)C(=O)N8c7ccc(C#N)c(Cl)c7)nn6)CC5)CC4)cc31)C(=O)N(C1CCC(=O)NC1=O)C2=O (stereo not shown) [Compound 11] | ≥ 1000
CCn1c2c(c3ccc(N4CCN(CC5CN(c6ccc(-c7ccc8c(c7)C(C)(C)C(=O)N8c7ccc(C#N)c(Cl)c7)c(F)n6)C5)CC4)cc31)C(=O)N(C1CCC(=O)NC1=O)C2=O (stereo not shown) [Compound 12] | < 200
CCn1c2c(c3ccc(OCCN4CCN(c5ccc(-c6ccc7c(c6)C(C)(C)C(=O)N7c6ccc(C#N)c(Cl)c6)c(F)n5)CC4)cc31)C(=O)N(C1CCC(=O)NC1=O)C2=O (stereo not shown) [Compound 15] | 200 to 1000
